# Experimental data from patent publication US9717737B2, “Vacuolin-1 as an inhibitor of autophagy and endosomal trafficking and the use thereof for inhibiting tumor progression” (The University of Hong Kong, priority 2014, dated 2017).
# Key:
# [1] = test system: human lung cancer stem cells (hLCSCs); test: Autophagy inhibition in lung cancer stem cells; type: cell-based
# Description: Cancer stem cells (CSCs), a subpopulation of cells within tumors, actually drive tumor growth and recurrence. CSCs are resistant to many current cancer treatments, including chemo- and radiation therapy, thus they can survive these therapy to regenerate new tumors. […] Therefore, it is of great interest to assess the anti-tumor effects of vacuolin-1 on CSCs.
# HeLa cells = test: Western blot analyses of LC3 and p62; type: cell-based
# Description: Western blot and Immunofluorescence staining analyses—Both assays were performed as described previously (Lu et al., 2013).
# human cancer cell lines = test: Combination with chemotherapy drugs in human cancer cell lines (FIG. 13); type: cell-based
# [2] = test system: HeLa, PC3, HepG2, MCF7, and A549 cells; type: cell-based
# Description: MTT cell proliferation assay—Cells were treated in four replicates and seeded into 96-well plate. Following drug treatment, MTT solution of 20 μl for every 100 μl medium was added to wells and incubated for 2 hours, followed by the addition of 150 μL of the DMSO solution to each well. The final reaction product, a purple formazan solution, was detected by a microplate reader (Techan infinite M200) for absorbance at a wavelength of 570 nm and a reference wavelength of 630 nm.
# CNE-1 and HONE-1 cells [3] = test: Colony formation assay, nasopharyngeal carcinoma cells; type: cell-based, human; settings: CNE-1 or HONE-1 cells
# Description: (§1) Although CQ has already been applied to treat a wide spectrum of human cancers, CQ induces ocular or renal toxicity and easily triggers drug resistance (Kimura et al., 2013). […] We first investigated the anti-tumor effects of vacuolin-1 in two nasopharyngeal carcinoma cell lines, CNE-1 and HONE-1. […] Alternatively, colony formation assay was performed to assess whether vacuolin-1 affects the ability of a single tumor cell to grow into a colony. […] We subsequently performed wound healing assay to assess whether vacuolin-1 affects the migration of tumor cells. […] Obviously, vacuolin-1 is an efficient anti-tumor agent in vitro.
# CNE-1 and HONE-1 cells [4] = type: cell-based, human
# Description: as §1
structure (smiles),measurement,setting,value
Ic1cccc(/C=N/Nc2nc(N3CCOCC3)nc(N(c3ccccc3)c3ccccc3)n2)c1 [vacuolin-1],autophagy inhibition potency in hLCSCs relative to other tumor cell lines (times less potent),[1],10 times
same,fusion block between autophagosomes and lysosomes after removal of compound (reversibility),"HeLa cells; 3 hours after removal from the medium, HeLa cells, 1 μM",completely relieved
same,potency in suppressing autophagy relative to CQ,"HeLa cells; HeLa and PC3 cells, 6 hours, LC3 and p62 western blot",at least ten times more potent than CQ
same,lipidated LC3-II level,"HeLa cells; HeLa cells, vacuolin-1 1 μM",markedly increased
same,p62 level,"HeLa cells; HeLa cells, vacuolin-1 1 μM",accumulated
same,"colony formation efficiency of cancer cells, combination with chemotherapy drugs",human cancer cell lines; FIG. 13B,greatly decreases
same,anti-tumor effects of chemotherapy drugs in combination,"human cancer cell lines; human cancer cell lines, FIG. 13A",potently enhances
same,cell toxicity (MTT cell viability),[2],much less cell toxicity than CQ
same,size and number of colonies generated from single cell,CNE-1 and HONE-1 cells [3],dramatically reduced the size and number of colonies
same,"cell toxicity, treatment alone",CNE-1 and HONE-1 cells [4],little cell toxicity
same,"synergistic effects on inhibiting tumor cell proliferation in combination with taxol, 5-FU, temsirolimus",CNE-1 and HONE-1 cells [4],almost no synergistic effects
